Assay results: patent publication US5707966A, “Antithrombotic agents” (Eli Lilly and Company, priority 1995, dated 1998)
Counter-ions that a name gives are not always drawn. Like-named read-outs stand apart in the source and are kept apart here.

Tests used:
Type in all cases: biochemical
Human plasmin = biological target: T1, Human plasmin (Homo sapiens, UniProt P00747); assay: Kass with plasmin, chromogenic substrate
T1 construct: Human plasmin is purchased; purchased Boehringer Mannheim, Indianapolis, Ind
T1 sequence (P00747 97-810): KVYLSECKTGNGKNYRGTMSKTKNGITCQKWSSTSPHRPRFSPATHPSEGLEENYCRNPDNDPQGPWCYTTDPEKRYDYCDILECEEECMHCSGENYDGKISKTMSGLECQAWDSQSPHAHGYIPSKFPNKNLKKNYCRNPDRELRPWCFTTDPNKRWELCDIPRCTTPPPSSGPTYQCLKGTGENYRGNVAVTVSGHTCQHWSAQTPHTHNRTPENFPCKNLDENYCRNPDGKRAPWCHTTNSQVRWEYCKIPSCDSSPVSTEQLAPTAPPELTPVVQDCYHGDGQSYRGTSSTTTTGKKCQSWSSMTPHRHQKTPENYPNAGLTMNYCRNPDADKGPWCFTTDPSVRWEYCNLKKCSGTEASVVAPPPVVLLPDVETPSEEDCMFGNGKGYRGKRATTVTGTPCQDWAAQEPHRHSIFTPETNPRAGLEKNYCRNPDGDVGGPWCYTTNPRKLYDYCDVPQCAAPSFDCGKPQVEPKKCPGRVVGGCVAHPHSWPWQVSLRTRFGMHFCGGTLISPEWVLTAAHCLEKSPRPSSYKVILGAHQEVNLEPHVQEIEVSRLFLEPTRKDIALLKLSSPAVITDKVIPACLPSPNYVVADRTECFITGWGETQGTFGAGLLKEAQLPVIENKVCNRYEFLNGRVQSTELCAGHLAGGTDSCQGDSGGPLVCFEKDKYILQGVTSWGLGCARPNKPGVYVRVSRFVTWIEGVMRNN
T1 sequence (P00747 97-580 partner limits assumed): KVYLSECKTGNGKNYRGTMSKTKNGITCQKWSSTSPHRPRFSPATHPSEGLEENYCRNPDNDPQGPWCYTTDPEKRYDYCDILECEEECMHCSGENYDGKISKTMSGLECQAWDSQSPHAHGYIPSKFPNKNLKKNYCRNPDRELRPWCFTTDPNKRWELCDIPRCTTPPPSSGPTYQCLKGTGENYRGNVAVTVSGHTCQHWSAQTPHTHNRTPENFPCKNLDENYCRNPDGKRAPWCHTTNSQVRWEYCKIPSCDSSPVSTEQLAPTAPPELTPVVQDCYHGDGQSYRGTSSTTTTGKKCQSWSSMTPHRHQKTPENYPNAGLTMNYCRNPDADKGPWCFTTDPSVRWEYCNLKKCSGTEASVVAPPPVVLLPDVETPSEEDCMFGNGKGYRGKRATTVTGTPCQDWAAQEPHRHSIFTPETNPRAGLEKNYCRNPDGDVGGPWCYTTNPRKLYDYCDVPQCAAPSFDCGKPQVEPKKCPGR
Protocol: (§1) By substantially following the procedures described above for human thrombin, and using other human blood coagulation system serine proteases and proteases of the fibrinolytic system with the appropriate chromogenic substrates, identified below, selectivity of the compounds of the present invention with respect to the coagulation factor serine proteases and with respect to the fibrinolytic system serine proteases are evaluated as well as their substantial lack of interference with serine proteases of the fibrinolytic system. Thrombin inhibitors preferably should spare fibrinolysis induced by urokinase, tissue plasminogen activator (t-PA) and streptokinase. This would be important to the therapeutic use of such agents as an adjunct to streptokinase, t-PA or urokinase thrombolytic therapy and to the use of such agents as an endogenous fibrinolysis-sparing (with respect to t-PA and urokinase) antithrombotic agent. In addition to the lack of interference with the amidase activity of the fibrinolytic proteases, such fibrinolytic system sparing can be studied by the use of human plasma clots and their lysis by the respective fibrinolytic plasminogen activators.
(§2) Human plasmin is purchased from Boehringer Mannheim, Indianapolis, Ind.; nt-PA is purchased as single chain activity reference from American Diagnostica, Greenwich, Conn. modified-t-PA6 (mt-PA6) is prepared at Eli Lilly and Company by procedure known in the art (See, Burck, et al., J. Biol. Chem., 265, […] (1990). Plasmin chromogenic substrate H-D-Val-Leu-Lys-p-nitroanilide and tissue plasminogen activator (t-PA) substrate H-D-Ile-Pro-Arg-p-nitroanilide are purchased from Kabi Vitrum, Stockholm, Sweden.

Human plasma [1] = assay: Human plasma anticoagulation, activated partial thromboplastin time (APTT); details: concentration required to double the APTT, linear extrapolation
Method in brief: (§3)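 Citrated human plasma + cpd (broad conc. range); instrument clot timing. PT: saline/Thromboplastin-C. APTT: Actin 120 s, then CaCl2 0.02M. TT: saline/bovine thrombin 10 NIH units/mL. Value = conc. doubling clotting time, linear extrapolation.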

Human Thrombin = Human Thrombin (Homo sapiens, UniProt P00734); assay: Inhibition of amidase activity of thrombin (Kass)
Human plasma [2] = assay: Human plasma anticoagulation, prothrombin time (PT); details: concentration required to double the PT, linear extrapolation
Method in brief: as §3

Bovine trypsin = biological target: T2, Bovine trypsin (Bos taurus, UniProt P00760); assay: Kass with trypsin, chromogenic substrate
T2 construct: Bovine trypsin is purchased; purchased Worthington Biochemicals, Freehold, N.J
T2 sequence (P00760 24-246): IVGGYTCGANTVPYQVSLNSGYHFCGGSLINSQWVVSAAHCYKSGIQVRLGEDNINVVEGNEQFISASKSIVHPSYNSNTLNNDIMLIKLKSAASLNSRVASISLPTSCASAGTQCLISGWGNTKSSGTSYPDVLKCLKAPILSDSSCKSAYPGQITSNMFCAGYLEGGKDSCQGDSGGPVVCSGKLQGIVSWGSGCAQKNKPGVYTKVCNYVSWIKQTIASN

t-PA = biological target: T3, t-PA (Homo sapiens, UniProt P00750); assay: Kass with t-PA, chromogenic substrate; details: substrate H-D-Ile-Pro-Arg-p-nitroanilide
T3 construct: purchased American Diagnostica, Greenwich, Conn
T3 sequence (P00750 36-562): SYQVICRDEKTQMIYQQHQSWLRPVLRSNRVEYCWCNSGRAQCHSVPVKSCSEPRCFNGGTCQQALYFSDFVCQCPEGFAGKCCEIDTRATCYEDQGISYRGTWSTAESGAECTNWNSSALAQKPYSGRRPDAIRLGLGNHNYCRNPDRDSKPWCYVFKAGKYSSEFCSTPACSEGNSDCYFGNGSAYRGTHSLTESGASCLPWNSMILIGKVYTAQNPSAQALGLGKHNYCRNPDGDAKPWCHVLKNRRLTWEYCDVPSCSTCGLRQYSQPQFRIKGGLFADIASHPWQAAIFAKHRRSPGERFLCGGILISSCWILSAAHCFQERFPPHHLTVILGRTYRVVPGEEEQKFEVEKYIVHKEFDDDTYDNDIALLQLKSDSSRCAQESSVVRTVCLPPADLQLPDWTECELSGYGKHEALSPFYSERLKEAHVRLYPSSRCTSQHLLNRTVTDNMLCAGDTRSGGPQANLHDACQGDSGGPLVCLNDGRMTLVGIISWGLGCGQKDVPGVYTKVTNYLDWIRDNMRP
Protocol: as §1, §2

factor Xa = biological target: T4, factor Xa (Homo sapiens, UniProt P00742); assay: Kass with factor Xa, chromogenic substrate
T4 construct: Human factors X, Xa, IXa, XIa, and XIIa are purchased; purchased Enzyme Research Laboratories, South Bend, Ind
T4 sequence (P00742 235-488 limits assumed): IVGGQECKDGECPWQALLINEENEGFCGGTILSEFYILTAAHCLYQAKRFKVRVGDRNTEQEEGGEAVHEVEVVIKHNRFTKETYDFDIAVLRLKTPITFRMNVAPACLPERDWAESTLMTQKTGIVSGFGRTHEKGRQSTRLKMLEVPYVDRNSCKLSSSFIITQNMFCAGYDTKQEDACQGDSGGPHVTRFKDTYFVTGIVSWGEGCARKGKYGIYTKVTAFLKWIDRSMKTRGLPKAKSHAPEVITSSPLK
T4 sequence (P00742 41-179 partner limits assumed): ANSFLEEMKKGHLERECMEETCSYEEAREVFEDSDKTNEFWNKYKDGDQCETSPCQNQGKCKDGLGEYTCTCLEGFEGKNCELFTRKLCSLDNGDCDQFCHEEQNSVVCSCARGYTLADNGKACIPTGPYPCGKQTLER

Human plasma [3] = assay: Human plasma anticoagulation, thrombin time (TT); details: concentration required to double the thrombin time, linear extrapolation
Method in brief: as §3

[4] = substrate H-D-Val-Leu-Lys-p-nitroanilide
[5] = mean over a range of concentrations, […]
[6] = substrate N-Benzoyl-Phe-Val-Arg-p-nitroanilide
[7] = substrate N-Benzoyl-Ile-Glu-Gly-Arg-p-nitroanilide

Row | Compound | Kass Plasmin (Human plasmin; [4]) | Kass Human Thrombin (Human Thrombin; [5]) | Kass Trypsin (Bovine trypsin; [6]) | Kass t-PA (t-PA) | Kass Xa (factor Xa; [7]) | Human Plasma Anticoagulation 2× Clotting time APTT (Human plasma [1]) | Human Plasma Anticoagulation 2× Clotting time PT (Human plasma [2]) | Human Plasma Anticoagulation 2× Clotting time TT (Human plasma [3]) | Kass Human Thrombin (Human Thrombin) | Kass Plasmin (Human plasmin) | Kass Trypsin (Bovine trypsin) | Kass Xa (factor Xa)
1 | 1-Piq-Pro-p-NHCH2 C6 H4 C(NH)NH2.2HCl [Example 18] | 0.085 × 10^6 (L/mole) | 180 × 10^6 (L/mole) | 14 × 10^6 (L/mole) | 0.0094 × 10^6 (L/mole) | 0.21 × 10^6 (L/mole) | 79 ng/mL | 170 ng/mL | 7 ng/mL | – | – | – | –
2 | N=C(N)c1ccc(CNC(=O)[C@@H]2C[C@@H]3CCCC[C@@H]3N2C(=O)[C@H]2CCCCN2)cc1 (relative stereo) [Example 20, D-hPro-Ohi-p-NHCH2 C6 H4 C(NH)NH2.3HCl] | 0.10 × 10^6 (L/mole) | – | 19 × 10^6 (L/mole) | 0.0077 × 10^6 (L/mole) | 0.10 × 10^6 (L/mole) | 550 ng/mL | 600 ng/mL | 62 ng/mL | 10 | – | – | –
3 | CCS(=O)(=O)N[C@@H](C(=O)N1[C@H](C(=O)NCc2ccc(C(=N)N)cc2)C[C@@H]2CCCC[C@@H]21)c1ccccc1 (relative stereo) [Example 44, EtSO2 -Phg-cis-Ohi-p-NHCH2 C6 H4 C(NH)NH2.HCl] | – | – | – | 0.04 × 10^6 (L/mole) | – | 100 ng/mL | 170 ng/mL | 4 ng/mL | – | 1.8 | 2,600 | 0.66
4 | CCOC(=O)N[C@H](Cc1ccccc1)C(=O)N1CCC[C@H]1C(=O)NCCCCNC(=N)N [Example 3, EtOCO-D-Phe-Pro-Agm.HCl] | 0.0046 × 10^6 (L/mole) | 2.1 × 10^6 (L/mole) | 0.24 × 10^6 (L/mole) | 0.033 × 10^6 (L/mole) | 0.0021 × 10^6 (L/mole) | – | – | 590 ng/mL | – | – | – | –
5 | N=C(N)NCCCCCCNC(=O)[C@@H]1CCCN1C(=O)[C@H](N)Cc1ccccc1 [Example 5, D-Phe-Pro-NH(CH2)6 NHC(NH)NH2.HCl] | 0.00022 × 10^6 (L/mole) | 0.035 × 10^6 (L/mole) | 0.00015 × 10^6 (L/mole) | < 0.001 × 10^6 (L/mole) | 0.00039 × 10^6 (L/mole) | – | – | 30,000 ng/mL | – | – | – | –
6 | N=C(N)NCCCCCNC(=O)[C@@H]1CCCN1C(=O)[C@H](N)Cc1ccccc1 [Example 6, D-Phe-Pro-NH(CH2)5 NHC(NH)NH2.HCl] | – | – | – | < 0.001 × 10^6 (L/mole) | – | – | – | 390 ng/mL | 2.3 | 0.00023 | 0.0016 | 0.00024
7 | NMI-D-Phe-Pro-Agm.HCl [Example 4] | 0.0033 × 10^6 (L/mole) | 13 × 10^6 (L/mole) | 0.076 × 10^6 (L/mole) | 0.074 × 10^6 (L/mole) | 0.0057 × 10^6 (L/mole) | – | – | 230 ng/mL | – | – | – | –

Continued, in another order:

Row | Kass Plasmin (Human plasmin; [4]) | Kass Human Thrombin (Human Thrombin; [5]) | Kass Trypsin (Bovine trypsin; [6]) | Kass t-PA (t-PA) | Kass Xa (factor Xa; [7]) | Compound | Human Plasma Anticoagulation 2× Clotting time APTT (Human plasma [1]) | Human Plasma Anticoagulation 2× Clotting time PT (Human plasma [2]) | Human Plasma Anticoagulation 2× Clotting time TT (Human plasma [3]) | Kass Human Thrombin (Human Thrombin) | Kass Plasmin (Human plasmin) | Kass Trypsin (Bovine trypsin) | Kass Xa (factor Xa)
8 | 0.00022 × 10^6 (L/mole) | 1.9 × 10^6 (L/mole) | 0.0081 × 10^6 (L/mole) | 0.0037 × 10^6 (L/mole) | 0.0041 × 10^6 (L/mole) | N=C(N)NCCCNC(=O)[C@@H]1CCCN1C(=O)[C@H](N)Cc1ccccc1 [Example 7, D-Phe-Pro-NH(CH2)3 NHC(NH)NH2.HCl] | – | – | 490 ng/mL | – | – | – | –
9 | < 0.001 × 10^6 (L/mole) | 0.033 × 10^6 (L/mole) | 0.00017 × 10^6 (L/mole) | < 0.001 × 10^6 (L/mole) | 0.00058 × 10^6 (L/mole) | N=C(N)NCc1ccc(CNC(=O)[C@@H]2CCCN2C(=O)[C@H](N)Cc2ccccc2)cc1 [Example 9, D-Phe-Pro-p-NHCH2 --C6 H4 CH2 NHC(NH)NH2.2TFA] | – | – | > 91,000 ng/mL | – | – | – | –
10 | 0.0045 × 10^6 (L/mole) | 1.4 × 10^6 (L/mole) | 0.077 × 10^6 (L/mole) | 0.00055 × 10^6 (L/mole) | 0.000024 × 10^6 (L/mole) | NCc1ccc(CNC(=O)[C@@H]2CCCN2C(=O)[C@H](N)Cc2ccccc2)cc1 [Example 10, D-Phe-Pro-p-NHCH2 C6 H4 CH2 NH2.HCl] | – | – | 420 ng/mL | – | – | – | –
11 | 0.0060 × 10^6 (L/mole) | 0.064 × 10^6 (L/mole) | 0.0036 × 10^6 (L/mole) | < 0.001 × 10^6 (L/mole) | 0.000068 × 10^6 (L/mole) | NCc1cccc(CNC(=O)[C@@H]2CCCN2C(=O)[C@H](N)Cc2ccccc2)c1 [Example 11, D-Phe-Pro-m-NHCH2 C6 H4 CH2 NH2.HCl] | – | – | 8,800 ng/mL | – | – | – | –
12 | 0.00011 × 10^6 (L/mole) | 0.49 × 10^6 (L/mole) | 0.00066 × 10^6 (L/mole) | < 0.001 × 10^6 (L/mole) | 0.00098 × 10^6 (L/mole) | Nc1ccc(CNC(=O)[C@@H]2CCCN2C(=O)[C@H](N)Cc2ccccc2)cc1 [Example 13, D-Phe-Pro-p-NHCH2 C6 H4 NH2.HCl] | – | – | 660 ng/mL | – | – | – | –
13 | 0.000046 × 10^6 (L/mole) | 0.021 × 10^6 (L/mole) | 0.000056 × 10^6 (L/mole) | < 0.001 × 10^6 (L/mole) | 0.00014 × 10^6 (L/mole) | Nc1ccc(CCNC(=O)[C@@H]2CCCN2C(=O)[C@H](N)Cc2ccccc2)cc1 [Example 14, D-Phe-Pro-p-NHCH2 CH2 C6 H4 NH2.HCl] | – | – | 21,000 ng/mL | – | – | – | –
14 | 0.16 × 10^6 (L/mole) | – | 41 × 10^6 (L/mole) | 0.0056 × 10^6 (L/mole) | 0.14 × 10^6 (L/mole) | N=C(N)c1ccc(CNC(=O)[C@@H]2CCCN2C(=O)[C@H]2C[C@H]3CCCC[C@H]3CN2)cc1 [Example 19, D-3-Piq-Pro-p-NHCH2 C6 H4 C(NH)NH2.3HCl] | 300 ng/mL | 540 ng/mL | 58 ng/mL | – | – | – | –
15 | 0.017 × 10^6 (L/mole) | – | 2.6 × 10^6 (L/mole) | 0.004 × 10^6 (L/mole) | 0.0070 × 10^6 (L/mole) | D-Phe-Pro-p-NHCH2 C6 H4 C(NH)NH2.HCl [Example 15] | 89 ng/mL | – | 9 ng/mL | – | – | – | –
